target: T1, Apelin receptor (Homo sapiens, UniProt P35414); assay: [35S]GTPgammaS Binding: The human APJ receptor was cloned by polymerase chain reaction and the gene encoding the receptor was subcloned in pFLAG-CMV-3 expression vector (Sigma, Saint Louis, Mo. USA) in-house at Amgen. A GTPγS binding assay was performed on membranes prepared from CHO cells stably expressing human APJ receptor. The optimum experimental conditions for the concentrations of GDP, MgCl2, and NaCl in the assay buffer were initially determined. The assay was performed in assay buffer [20 mM HEPES, pH 7.5, 5 mM MgCl2, and 0.1% (w/v) BSA with 200 mM NaCl, 3 μM GDP] and membranes expressing human APJ receptor/well along with WGA PS beads. The reaction was initiated by addition of 0.2 nM [35S]GTPγS (Perkin Elmer Life and Analytical Sciences, Waltham USA) in the absence or presence of various ligands and incubated at RT for 90 min. Nonspecific binding was determined in the presence of 100 μM GTPγS and was always less than 0.2% of total binding. All the results presented are means of several independent experiments and analyzed by non-linear regression methods using commercially available program Prism (GraphPad, San Diego, Calif.).
T1 sequence (P35414 whole entry): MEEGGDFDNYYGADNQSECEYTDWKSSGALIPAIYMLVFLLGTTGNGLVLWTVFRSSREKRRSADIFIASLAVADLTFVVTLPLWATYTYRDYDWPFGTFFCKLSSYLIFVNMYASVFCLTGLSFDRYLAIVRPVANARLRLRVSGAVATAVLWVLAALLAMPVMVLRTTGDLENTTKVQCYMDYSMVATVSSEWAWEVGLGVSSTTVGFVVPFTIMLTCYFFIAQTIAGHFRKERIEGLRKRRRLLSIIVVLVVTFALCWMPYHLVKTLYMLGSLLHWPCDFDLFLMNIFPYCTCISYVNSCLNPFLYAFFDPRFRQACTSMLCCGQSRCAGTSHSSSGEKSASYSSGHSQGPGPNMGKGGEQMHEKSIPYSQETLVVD

Row | SMILES | EC50
1 | COc1cccc(OC)c1-n1c(NS(=O)(=O)[C@@H](C)[C@@H](OC(C)C)c2ncc(C)cn2)nnc1[C@H]1COCCO1 | 16 nM
2 | CO[C@H]1CCC[C@@H](OC)[C@@H]1n1c(NS(=O)(=O)[C@@H](C)[C@H](C)c2ncc(C)cn2)nnc1C1CCCO1 (single isomer, unassigned) | 240 nM
3 | COc1ncnc(OC)c1-n1c(NS(=O)(=O)[C@@H](C)[C@H](C)c2ncc(Cl)cn2)nnc1C1COC1 | 730 nM

Source: ChEMBL document CHEMBL5726001, “Compounds for use in preparing heterocyclic triazole agonists of the APJ receptor” (2018)
